For one data set, the target named is CYP3A4(BQ) (Homo sapiens, UniProt P08684). Nature of the data set: CYP3A4 inhibition (substrate BQ). The data set is classed as in vitro ADME. The conditions noted are these: read-out: Cyp IC50 (μM) 3A4(BQ). Here is the method: (§1) CYP (Cytochrome P450) enzymes are the major drug metabolizing enzymes present in the liver. The inhibition of CYP enzyme activity (IC50) for each of CYP1A2, CYP2C19, CYP2C9, CYP2D6, CYP3A4(BFC) and CYP3A4(BQ) is determined for compounds, where inhibition of metabolism of a known substrate leads to a decrease in the fluorescence of the metabolized product. The fluorescence of the product is monitored as a function of compound concentration. Compounds are dissolved in dimethyl sulfoxide to a concentration of 100 mM. These are diluted […], into 82 μL of acetonitrile. An 11 μL aliquot of this solution is then added to 204 μL of cofactor mix (1.3% NADPH Regeneration system Solution A, 1.04% NADPH Regeneration system Solution B from BD Biosciences, 5% acetonitrile and 0.05% dimethyl sulfoxide). These are then serially diluted 1:1 (160 μL to 160 μL co-factor mix) for a total of 10 points. A 10 μL aliquot of this final mixture is dispensed into 384 well assay plates and incubated for 10 minutes at 37° C. Enzyme and substrate mix (10 μL; 0.5 pmol CYP1A2/5 μM CEC; 1.0 pmol CYP2C9/75 μM MFC; 0.5 pmol CYP2C19/25 μM CEC; 1.5 pmol CYP2D6/1.5 μM AMMC; 1.0 pmol CYP3A4/50 μM BFC; or 1.0 pmol CYP3A4/40 μM BQ) is added to these assay plates. Assay plates are incubated at 37° C. (CYP1A2-15 min; CYP2C9-45 min; CYP2C19, 2D6 and 3A4-30 min) and read in a Tecan Safire 2 plate reader (CYP1A2, 2C19 and 3A4 409 ex/460 em; CYP2C9 and 2D6 409 ex/530 em). The signal versus compound concentration is used to determine the IC50. The enzymes and substrates for this assay are obtained from BD Biosciences.

The next data set addresses CYP2C9 (Homo sapiens, UniProt P11712). Nature of the data set: CYP2C9 inhibition (fluorescent substrate MFC). Type of data set: in vitro ADME. As to conditions: read-out: Cyp IC50 (μM) 2C9. As to the method:
as §1

The target of the next data set is T1, CYP1A2 (Homo sapiens, UniProt P05177).
T1 sequence (P05177 1-516): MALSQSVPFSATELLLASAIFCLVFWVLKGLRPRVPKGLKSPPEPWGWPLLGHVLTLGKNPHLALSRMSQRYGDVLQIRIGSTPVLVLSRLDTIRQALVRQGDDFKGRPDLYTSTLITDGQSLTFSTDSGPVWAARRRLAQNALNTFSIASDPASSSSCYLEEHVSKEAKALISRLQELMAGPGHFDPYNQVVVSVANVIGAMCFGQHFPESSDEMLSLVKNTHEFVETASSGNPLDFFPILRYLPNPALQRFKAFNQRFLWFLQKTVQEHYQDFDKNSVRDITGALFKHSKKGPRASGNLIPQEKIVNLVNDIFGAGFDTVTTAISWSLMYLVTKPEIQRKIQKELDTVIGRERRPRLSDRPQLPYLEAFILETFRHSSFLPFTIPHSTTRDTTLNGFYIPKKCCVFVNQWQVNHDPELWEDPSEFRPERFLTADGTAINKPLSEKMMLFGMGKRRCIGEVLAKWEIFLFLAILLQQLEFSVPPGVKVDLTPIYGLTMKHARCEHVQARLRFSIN
As to the kind of experiment: CYP1A2 inhibition (fluorescent substrate CEC). Type of data set: in vitro ADME. The conditions noted are these: read-out: Cyp IC50 (μM) 1A2. Here is the method:
as §1

Data set [1] can be described thus: Relative solubility by turbidity in aqueous buffers (pH 1.5, 4.5, 6.8, 7.4). Type of data set: physicochemical. The conditions noted are these: for turbidity threshold (L, M, H) 1.4: pH 1.5 buffer (SGF); for turbidity threshold (L, M, H) 4.5: pH 4.5 buffer (SIF); for turbidity threshold (L, M, H) 6.8: pH 6.8 buffer (SIF); for turbidity threshold (L, M, H) 7.4: pH 7.4 buffer (HEPES). The gist of the method: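 2-fold DMSO dilution series from 25 mM stocks were added to SGF (0.5M NaCl, pH 1.5), SIF (0.05M NaH2PO4, pH 4.5/6.8) or HEPES (10 mM, 150 mM NaCl, pH 7.4). Absorbance at 490, 535 and 650 nm; value is the concentration crossing OD 0.01, averaged over wavelengths. Low <31.3 μM, moderate 31.3–250 μM, high >250 μM.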

In another data set the target is CYP2C19 (Homo sapiens, UniProt P33261). As to the kind of experiment: CYP2C19 inhibition (fluorescent substrate CEC). The data set is classed as in vitro ADME. The conditions noted are these: read-out: Cyp IC50 (μM) 2C19. Here is the method:
as §1

The next data set addresses CYP2D6 (Homo sapiens, UniProt P10635). Nature of the data set: CYP2D6 inhibition (fluorescent substrate AMMC). Type of data set: in vitro ADME. The conditions noted are these: read-out: Cyp IC50 (μM) 2D6. As to the method: as §1
Another data set deals with CYP3A4(BFC) (Homo sapiens, UniProt P08684). As to the kind of experiment: CYP3A4 inhibition (substrate BFC). The conditions noted are these: read-out: Cyp IC50 (μM) 3A4(BFC). The data set is classed as in vitro ADME. As to the method: as §1
The target of a further data set is B-Raf (Homo sapiens, UniProt P15056). As to the kind of experiment: B-Raf kinase activity assay (AlphaScreen, biotin-MEK1 substrate). As to conditions: 100 μM ATP, 100 nM biotin-MEK1, 45 minutes at room temperature; read-out: Biochemical activity (IC50 μM) B-Raf. The gist of the method: (§2)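 Each Raf enzyme (0.1 ng) phosphorylates 100 nM biotin-MEK1 in pH 7.0 HEPES with Mg2+/Mn2+, 100 μM ATP final, 45 min at room temperature. Phospho-MEK1/2 antibody with AlphaScreen beads is read after 3 h. IC50 comes from an 8-point dilution series.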

For a further data set, the target named is B-Raf V600E (Homo sapiens, UniProt P15056, V600E). Nature of the data set: B-Raf V600E kinase activity assay (AlphaScreen, biotin-MEK1 substrate). As to conditions: 100 μM ATP, 100 nM biotin-MEK1, 45 minutes at room temperature, read-out: Biochemical activity (IC50 μM) V600E. The gist of the method: as §2
On the technique in general: Bead proximity is the source of the signal in Alpha formats.

For a further data set, the target named is c-Raf-1 (Homo sapiens, UniProt P04049). As to the kind of experiment: c-Raf-1 kinase activity assay (AlphaScreen, biotin-MEK1 substrate). As to conditions: 100 μM ATP, 100 nM biotin-MEK1, 45 minutes at room temperature; read-out: Biochemical activity (IC50 μM) c-Raf-1. The gist of the method:
as §2

Structures are written as SMILES. Where only a bound is given, the exact number is not on record here.

Data on 6 compounds can be found in US9440969B2, “Compounds and methods for kinase modulation, and indications therefor” (PLEXXIKON INC., priority 2009, dated 2016).

CYP2C19, sequence (P33261 whole entry): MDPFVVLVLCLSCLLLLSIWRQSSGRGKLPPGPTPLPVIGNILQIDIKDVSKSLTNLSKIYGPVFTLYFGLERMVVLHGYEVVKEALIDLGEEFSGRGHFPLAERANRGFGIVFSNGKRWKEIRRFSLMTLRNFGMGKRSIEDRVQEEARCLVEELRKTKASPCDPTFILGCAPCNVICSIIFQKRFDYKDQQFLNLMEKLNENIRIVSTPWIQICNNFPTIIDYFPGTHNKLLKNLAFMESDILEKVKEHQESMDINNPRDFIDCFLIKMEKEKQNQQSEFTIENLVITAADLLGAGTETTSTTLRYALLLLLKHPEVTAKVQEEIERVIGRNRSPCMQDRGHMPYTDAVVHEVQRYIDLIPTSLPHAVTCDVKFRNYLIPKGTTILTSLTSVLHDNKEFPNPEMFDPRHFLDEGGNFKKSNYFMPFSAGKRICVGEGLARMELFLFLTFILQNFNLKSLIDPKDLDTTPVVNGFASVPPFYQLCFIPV
CYP2C9, sequence (P11712 whole entry): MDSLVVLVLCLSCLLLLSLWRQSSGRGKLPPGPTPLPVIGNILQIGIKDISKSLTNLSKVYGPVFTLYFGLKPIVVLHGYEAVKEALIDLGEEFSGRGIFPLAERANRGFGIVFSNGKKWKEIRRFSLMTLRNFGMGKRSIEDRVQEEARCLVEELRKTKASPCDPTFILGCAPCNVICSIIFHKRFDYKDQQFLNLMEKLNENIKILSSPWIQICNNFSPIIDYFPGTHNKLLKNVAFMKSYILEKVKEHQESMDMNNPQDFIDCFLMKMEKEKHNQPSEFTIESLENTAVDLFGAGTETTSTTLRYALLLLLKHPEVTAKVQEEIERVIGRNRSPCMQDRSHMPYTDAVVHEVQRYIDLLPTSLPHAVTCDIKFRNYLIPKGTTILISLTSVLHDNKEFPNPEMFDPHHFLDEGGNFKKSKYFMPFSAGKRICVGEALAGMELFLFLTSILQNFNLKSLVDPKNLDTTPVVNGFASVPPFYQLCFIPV
CYP2D6, sequence (P10635 whole entry): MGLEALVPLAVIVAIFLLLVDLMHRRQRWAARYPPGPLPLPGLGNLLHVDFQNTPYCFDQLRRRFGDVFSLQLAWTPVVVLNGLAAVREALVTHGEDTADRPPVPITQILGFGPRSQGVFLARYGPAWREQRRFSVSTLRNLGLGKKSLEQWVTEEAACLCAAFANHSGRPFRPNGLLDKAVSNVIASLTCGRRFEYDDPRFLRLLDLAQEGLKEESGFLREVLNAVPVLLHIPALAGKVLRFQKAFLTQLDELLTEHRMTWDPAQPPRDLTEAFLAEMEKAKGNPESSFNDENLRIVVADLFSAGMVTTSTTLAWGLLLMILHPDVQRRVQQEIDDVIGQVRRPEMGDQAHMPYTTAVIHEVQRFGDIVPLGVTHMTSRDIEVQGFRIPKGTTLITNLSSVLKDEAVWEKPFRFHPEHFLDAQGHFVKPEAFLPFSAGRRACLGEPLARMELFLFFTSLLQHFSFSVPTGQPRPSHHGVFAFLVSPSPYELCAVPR
CYP3A4(BQ), sequence (P08684 whole entry): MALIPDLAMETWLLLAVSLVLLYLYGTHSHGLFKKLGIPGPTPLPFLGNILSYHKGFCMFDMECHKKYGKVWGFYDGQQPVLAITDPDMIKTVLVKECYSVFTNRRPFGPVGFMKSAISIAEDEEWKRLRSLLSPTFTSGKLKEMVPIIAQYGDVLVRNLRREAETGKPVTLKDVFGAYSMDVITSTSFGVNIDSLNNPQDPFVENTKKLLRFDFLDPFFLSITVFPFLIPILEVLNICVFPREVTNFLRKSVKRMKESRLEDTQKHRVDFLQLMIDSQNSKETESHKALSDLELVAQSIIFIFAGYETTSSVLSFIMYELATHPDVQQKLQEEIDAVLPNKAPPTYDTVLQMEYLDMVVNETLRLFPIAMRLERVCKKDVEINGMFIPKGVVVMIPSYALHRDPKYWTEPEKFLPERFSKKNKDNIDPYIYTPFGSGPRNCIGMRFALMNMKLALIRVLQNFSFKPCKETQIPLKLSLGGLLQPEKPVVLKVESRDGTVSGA
CYP3A4(BFC), sequence (P08684 whole entry): as above
c-Raf-1, sequence (P04049 whole entry Y340D/Y341D, form open): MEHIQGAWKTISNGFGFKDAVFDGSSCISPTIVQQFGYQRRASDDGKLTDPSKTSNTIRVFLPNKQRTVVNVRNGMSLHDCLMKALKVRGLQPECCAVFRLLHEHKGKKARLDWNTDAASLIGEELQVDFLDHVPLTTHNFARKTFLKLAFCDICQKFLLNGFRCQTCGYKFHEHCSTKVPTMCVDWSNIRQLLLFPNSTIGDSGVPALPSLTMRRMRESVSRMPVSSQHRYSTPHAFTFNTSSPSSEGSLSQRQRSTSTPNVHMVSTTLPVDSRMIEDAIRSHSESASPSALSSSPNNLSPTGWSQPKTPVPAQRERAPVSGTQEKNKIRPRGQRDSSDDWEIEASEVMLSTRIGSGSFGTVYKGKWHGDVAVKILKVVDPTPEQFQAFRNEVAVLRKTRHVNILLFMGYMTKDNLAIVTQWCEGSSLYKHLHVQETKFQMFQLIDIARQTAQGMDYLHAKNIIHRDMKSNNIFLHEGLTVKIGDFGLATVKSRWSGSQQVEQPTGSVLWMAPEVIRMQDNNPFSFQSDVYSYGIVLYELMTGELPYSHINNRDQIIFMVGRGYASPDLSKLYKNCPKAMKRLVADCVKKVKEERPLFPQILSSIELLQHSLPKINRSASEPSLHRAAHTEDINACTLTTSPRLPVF
B-Raf, sequence (P15056 whole entry): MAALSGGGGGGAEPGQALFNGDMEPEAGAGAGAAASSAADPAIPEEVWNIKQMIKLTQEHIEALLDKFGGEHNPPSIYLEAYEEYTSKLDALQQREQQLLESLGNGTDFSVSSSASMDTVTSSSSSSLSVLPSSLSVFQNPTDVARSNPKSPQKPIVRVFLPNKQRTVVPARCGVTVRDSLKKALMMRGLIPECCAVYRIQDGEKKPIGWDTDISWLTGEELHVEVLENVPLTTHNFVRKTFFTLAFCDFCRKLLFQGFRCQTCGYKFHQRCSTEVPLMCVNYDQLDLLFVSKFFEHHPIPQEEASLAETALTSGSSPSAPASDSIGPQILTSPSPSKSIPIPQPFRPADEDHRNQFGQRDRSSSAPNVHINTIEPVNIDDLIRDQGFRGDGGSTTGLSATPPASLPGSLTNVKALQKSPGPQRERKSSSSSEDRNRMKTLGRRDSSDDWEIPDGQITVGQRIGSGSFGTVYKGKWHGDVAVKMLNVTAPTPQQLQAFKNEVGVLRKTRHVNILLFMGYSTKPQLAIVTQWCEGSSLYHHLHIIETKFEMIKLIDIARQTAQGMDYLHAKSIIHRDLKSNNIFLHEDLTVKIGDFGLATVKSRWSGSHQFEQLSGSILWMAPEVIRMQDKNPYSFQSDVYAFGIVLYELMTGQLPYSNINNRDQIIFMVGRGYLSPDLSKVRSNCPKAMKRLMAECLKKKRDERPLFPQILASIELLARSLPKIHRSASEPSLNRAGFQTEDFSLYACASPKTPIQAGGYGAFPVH
B-Raf V600E, sequence (P15056 whole entry V600E): as the sequence (P15056 whole entry) above, with V600E counted along it

One may read the IC50 as the concentration that inhibits the measured activity by half. As to `O=C(c1c(F)ccc(NS(=O)(=O)c2cc(F)ccc2F)c1F)c1c[nH]c2ncc(-c3cnc(NC4CC4)nc3)cc12` [P-1506, N-{3-[5-(2-Cyclopropylamino-pyrimidin-5-yl)-1H-pyrrolo[2,3-b]pyridine-3-carbonyl]-2,4-difluoro-phenyl}-2,5-difluoro-benzenesulfonamide], the IC50 was > 10 µM at CYP3A4(BQ); < 5 µM on CYP2C9; > 10 µM on CYP1A2; > 10 µM on CYP2C19; > 10 µM on CYP2D6; < 5 µM on CYP3A4(BFC). Further, the “turbidity threshold (L, M, H) 1.4” value in data set [1] is “L (low solubility if the threshold concentration is <31.3 μM)”. Also, the “turbidity threshold (L, M, H) 4.5” value in [1] was “L (low solubility if the threshold concentration is <31.3 μM)”. The “turbidity threshold (L, M, H) 6.8” value in data set [1] is listed as “L (low solubility if the threshold concentration is <31.3 μM)”. The “turbidity threshold (L, M, H) 7.4” value in data set [1] is recorded as “L (low solubility if the threshold concentration is <31.3 μM)”.
Regarding `COc1ccc(-c2cnc3[nH]cc(C(=O)c4c(F)ccc(NS(=O)(=O)c5cc(F)ccc5F)c4F)c3c2)cn1` [P-1404, N-{2,4-Difluoro-3-[5-(6-methoxy-pyridin-3-yl)-1H-pyrrolo[2,3-b]pyridine-3-carbonyl]-phenyl}-2,5-difluoro-benzenesulfonamide], the IC50 is < 0.1 µM at B-Raf; < 0.1 µM at B-Raf V600E; > 10 µM at CYP3A4(BQ); < 0.1 µM on c-Raf-1; > 10 µM at CYP2C9; > 10 µM on CYP1A2. Also, the IC50 on CYP2C19, on CYP2D6 and on CYP3A4(BFC) was > 10 µM each time.
`CCCS(=O)(=O)Nc1ccc(F)c(C(=O)c2c[nH]c3ncc(-c4ccc5ncccc5c4)cc23)c1F` [P-0034, Propane-1-sulfonic acid [2,4-difluoro-3-(5-quinolin-6-yl-1H-pyrrolo[2,3-b]pyridine-3-carbonyl)-phenyl]-amide]: the IC50 at CYP3A4(BQ), on CYP2C9, at CYP1A2, on CYP2C19, at CYP2D6 and at CYP3A4(BFC) was > 10 µM each time.
For `CCCS(=O)(=O)Nc1ccc(F)c(C(=O)c2c[nH]c3ncc(-c4cnn(C5CCN(C(=O)OC(C)(C)C)CC5)c4)cc23)c1F` [P-1001, 4-(4-{3-[2,6-Difluoro-3-(propane-1-sulfonylamino)-benzoyl]-1H-pyrrolo[2,3-b]pyridin-5-yl}-pyrazol-1-yl)-piperidine-1-carboxylic acid tert-butyl ester], the IC50 was > 10 µM on CYP3A4(BQ); < 0.1 µM on c-Raf-1; > 10 µM at CYP2C9; > 10 µM on CYP1A2; 5 to 10 µM at CYP2C19; > 10 µM on CYP2D6. For the same compound, the IC50 on CYP3A4(BFC) lay in the range of 5 to 10 µM. Moreover, the “turbidity threshold (L, M, H) 1.4” value in data set [1] was “M (moderate solubility if the threshold concentration is 31.3 μM to 250 μM)”. Besides, in data set [1], the “turbidity threshold (L, M, H) 4.5” value is given as “L (low solubility if the threshold concentration is <31.3 μM)”. Further, the “turbidity threshold (L, M, H) 6.8” value in [1] is “M (moderate solubility if the threshold concentration is 31.3 μM to 250 μM)”. Besides, the “turbidity threshold (L, M, H) 7.4” value in [1] is given as “L (low solubility if the threshold concentration is <31.3 μM)”.
Turning to `CCCS(=O)(=O)Nc1ccc(F)c(C(=O)c2c[nH]c3ncc(-c4ccc5cccnc5c4)cc23)c1F` [P-0033, Propane-1-sulfonic acid [2,4-difluoro-3-(5-quinolin-7-yl-1H-pyrrolo[2,3-b]pyridine-3-carbonyl)-phenyl]-amide], the IC50 is > 10 µM at CYP3A4(BQ); > 10 µM on CYP2C9; > 10 µM on CYP1A2; < 5 µM at CYP2C19; > 10 µM at CYP2D6; > 10 µM on CYP3A4(BFC). Also, the “turbidity threshold (L, M, H) 1.4” value in data set [1] is “L (low solubility if the threshold concentration is <31.3 μM)”. Further, in data set [1], the “turbidity threshold (L, M, H) 4.5” value is reported as “L (low solubility if the threshold concentration is <31.3 μM)”. The “turbidity threshold (L, M, H) 6.8” value in data set [1] was “L (low solubility if the threshold concentration is <31.3 μM)”. Also, the “turbidity threshold (L, M, H) 7.4” value in data set [1] is “L (low solubility if the threshold concentration is <31.3 μM)”.
`COc1ncc(-c2cnc3[nH]cc(C(=O)c4cccc(NS(=O)(=O)c5ccccc5F)c4F)c3c2)cn1` [P-1518, 2-Fluoro-N-{2-fluoro-3-[5-(2-methoxy-pyrimidin-5-yl)-1H-pyrrolo[2,3-b]pyridine-3-carbonyl]-phenyl}-benzenesulfonamide]: the IC50 on CYP3A4(BQ), on CYP2C9, on CYP1A2, on CYP2C19, on CYP2D6 and at CYP3A4(BFC) was > 10 µM each time. Moreover, the “turbidity threshold (L, M, H) 1.4” value in data set [1] was “L (low solubility if the threshold concentration is <31.3 μM)”. In data set [1], the “turbidity threshold (L, M, H) 4.5” value is recorded as “L (low solubility if the threshold concentration is <31.3 μM)”. For the same compound, the “turbidity threshold (L, M, H) 6.8” value in data set [1] is on record as “L (low solubility if the threshold concentration is <31.3 μM)”. Further, in data set [1], the “turbidity threshold (L, M, H) 7.4” value is recorded as “L (low solubility if the threshold concentration is <31.3 μM)”.
